Values of other authors as cited in US20060210650A1, “Supplemental dietary composition for promoting weight loss” (priority 2004, published 2006).

Conditions: 8-week study

SMILES: O=C(O)CC(O)(C(=O)O)C(O)C(=O)O (single isomer, unassigned; (-)) [HCA, (−) hydroxycitric acid]
- High-Density Lipoproteins and excretion of urinary fat metabolites: increased
- LDL-cholesterol, triglycerides and serum leptin levels: decrease
